Molecules are shown by their SMILES.

This is an account of results in patent US4056631A, “Method of combatting ticks” (Showa Denko K.K., priority 1973, dated 1977).

The test system of series [1] is Haemaphysalis longicornis. The series can be described thus: Test 2: killing of tick larvae of Haemaphysalis longicornis (immersion in emulsified aqueous solution). The following applies: immersed 2 to 5 minutes, 25° C. for 24 hours, read-out: Combatting Effect of Larvae of Haemaphysalis longicornis (mortality of unfed larvae). It is filed as in vivo. On the procedure: (§1) Groups of 50 to 100 larvae of Boophilus microplus and Haemaphysalis longicornis of about two weeks old placed in paper packets were immeresed for 2 to 5 minutes in an emulsified aqueous solution of the test compounds of a concentration of 100 ppm, and the larvae were incubated at 25° C. for 24 hours according to the procedure described by Stone and Haydock (1962), and the rate of the larvae killed were determined. Each figure indicates mortality of unfed larvae after treatment with the test compounds.

Series [2] relates to Boophilus microplus. The series can be described thus: Test 1: inhibition of oviposition by Boophilus microplus (acetone solution dropped on back of blood-fed females). The settings on record: Rhipicephalus microplus, topical, 336 h, read-out: Inhibition Ratio of Oviposition by Boophilus microplus.
Description: (§3) One each of the adults of female Boophilus microplus or Haemaphysalis longicornis which had been allowed to suck blood fully was placed in a flat bottom test tube having a diameter of 10 millimeters and a depth of 35 millimeters. After rendering the chemicals to be tested into acetone solutions, the solutions were dropped to the back of the ticks in an amount corresponding to 110 gamma per one gram of body weight, using a micro syringe after which the acetone was evaporated. The test tube was then transferred to a desiccator containing a small portion of water where it was left standing at a constant temperature of 30° C., and the ticks were allowed to oviposit. Two weeks later, the amount of eggs laid per 1 gram of body weight was counted. Using this value and the amount of eggs laid in the case of the control group not treated with the chemicals, the rate of inhibition of oviposition was obtained as follows: [formula] where A is the number of eggs laid per gram of body weight of ticks of the group not treated with chemicals,
(§4) B is the number of eggs laid per gram of body weight of ticks of the group treated with chemicals.
(§5) The foregoing ratio was used to indicate the effectiveness of the chemicals tested.
The subject of series [3] is Boophilus microplus. The series can be described thus: Test 2: killing of tick larvae of Boophilus microplus (immersion in emulsified aqueous solution). In kind it is in vivo. The following applies: Rhipicephalus microplus, immersed 2 to 5 minutes, 25° C. for 24 hours, read-out: Combatting Effect of Larvae of Boophilus microplus (mortality of unfed larvae). On the procedure:
as §1

Series [4] has as its system Haemaphysalis longicornis. Description: Test 1: inhibition of oviposition by Haemaphysalis longicornis (acetone solution dropped on back of blood-fed females). The settings on record: topical, 336 h, read-out: Inhibition Ratio of Oviposition by Haemaphysalis longicornis.
Description: as §3, §4, §5
Series [5] is described as follows: Test 4: acute oral toxicity in mice. Details: species or system mice (male albino, strain ddY). The settings on record: mouse, in vivo, single dose, observed for a week. Here is the method: Acute oral toxicity was determined by using male albino mice strain ddY, 5 weeks old. The test compounds were administered orally once and the LD50 values were calculated after observing for a week.

Series [6] concerns Boophilus microplus. The series can be described thus: Test 3: inhibiting oviposition by Boophilus microplus (spray of diluted Recipe 1 emulsion). It is filed as in vivo. The settings on record: relative to water-sprayed control, two weeks, 30° C. On the procedure:
(§2) An emulsion was prepared in accordance with the foregoing Recipe 1, using as its active ingredient the compound No. 12. Several classes of spraying liquids having the concentrations indicated in Table 3 were prepared by diluting this emulsion with water. Ten female Boophilus microplus which had sucked blood fully were placed on a filter paper, and the liquid described above was sprayed onto the ticks with a glass sprayer in an amount such that the liquid would flow down the backs of the ticks. The ticks were then immediately transferred to a wet filter paper disposed in a Petri dish, and when the liquid on the backs of the ticks became somewhat dried, the dish was covered. The Petri dish was then held at a constant temperature of 30° C. for two weeks, after which the total amount of eggs laid was counted. During the time the Petri dish was held at a constant temperature, the inside of the Petri dish was maintained in a state of high humidity by dropping a small amount of water onto the filter paper daily. The effectiveness was judged by the rate of eggs laid by the several treated groups relative to the total eggs laid in the case of the ticks of the control group, which had been sprayed with only water. On the other hand, the effectiveness in killing the female adults was judged by observation of the presence or absence of deaths. The case where the presence of deaths was observed is indicated with the symbol (+), and the case where there were no deaths is indicated with the symbol (-).

In series [7] the test system is Boophilus microplus. Description: Test 3: killing adults of Boophilus microplus (spray of diluted Recipe 1 emulsion). The following applies: female adults. It is filed as in vivo. Set-up: key: (+): presence of deaths was observed; (-): there were no deaths. On the procedure: as §2
Setting [8] is: concentration of compound 0.003%.
[9] abbreviates: concentration of compound 0.01%.
The mark [10] stands for this setting: concentration of compound 0.03%.

What is called mortality is the share of the test organisms that died. Consider `CCN=C=NC(C)(C)c1ccccc1` [Compound 1, N-ethyl-N'-(2-phenyl-2-propyl)carbodiimide], for which the mortality at 100 ppm in series [1] is 98%.

Turning to `CCCN=C=NC(C)(C)c1ccccc1` [Compound 2, N-n-propyl-N'-(2-phenyl-2-propyl)carbodiimide], the pest or weed control at 110 µg/g in series [2] was found to be 100%.

For the compound `CC(C)N=C=NC(C)(C)c1ccccc1` [Compound 3, N-iso-propyl-N'-(2-phenyl-2-propyl) carbodiimide], the mortality at 100 ppm in series [3] turned out to be 96.4%.

Take `CC(C)(C)N=C=NC(C)(C)c1ccccc1` [Compound 4, N-tert-butyl-N'-(2-phenyl-2-propyl)carbodiimide]: the mortality at 100 ppm in series [1] is 80.3%.

As to `CCCCCN=C=NC(C)(C)c1ccccc1` [Compound 5, N-n-pentyl-N'-(2-phenyl-2-propyl)carbodiimide], the mortality at 100 ppm in series [1] was found to be 100%. In series [4], the pest or weed control at 110 µg/g was found to be 100%.

The term LD50 denotes the dose expected to kill half of the subjects tested. Consider `CCCCCCN=C=NC(C)(C)c1ccccc1` [Compound 6, N-n-hexyl-N'-(2-phenyl-2-propyl)carbodiimide], for which the pest or weed control at 110 µg/g was 100% in series [4] and 96.3% in series [2]. The same compound gave a 50% lethal dose (LD50) at 168 h in series [5] of 2000 mg/kg. In addition, in series [3], the mortality at 100 ppm stood at 74.6%.

Consider `CCCCCCCN=C=NC(C)(C)c1ccccc1` [Compound 7, N-n-heptyl-N'-(2-phenyl-2-propyl)carbodiimide], for which the pest or weed control at 110 µg/g in series [4] and in series [2] was 100% throughout.

Consider `CCCCCCCCN=C=NC(C)(C)c1ccccc1` [Compound 8, N-n-octyl-N'-(2-phenyl-2-propyl)carbodiimide], for which the pest or weed control at 110 µg/g in series [4] and in series [2] was 100% throughout. This compound returned an LD50 at 168 h in series [5] of 6000 mg/kg. The mortality at 100 ppm in series [3] came out at 68.5%.

Take `CCCCC(CC)CN=C=NC(C)(C)c1ccccc1` (stereo not drawn) [Compound 9, N-(2-ethyl-n-hexyl)-N'-(2-phenyl-2-propyl)carbodiimide]: the mortality at 100 ppm in series [1] amounted to 100%. Besides, the pest or weed control at 110 µg/g in series [4] stood at 100%. Besides, in series [5], the 50% lethal dose (LD50) at 168 h amounted to 7000 mg/kg.

Take `CCCCCCCCCN=C=NC(C)(C)c1ccccc1` [Compound 10, N-n-nonyl-N'-(2-phenyl-2-propyl)carbodiimide]: the pest or weed control at 110 µg/g in series [4] and in series [2] was 100% in each case.

As to `CCCCCCCCCCN=C=NC(C)(C)c1ccccc1` [Compound 11, N-n-decyl-N'-(2-phenyl-2-propyl)carbodiimide], the results for the pest or weed control at 110 µg/g in series [4] and in series [2] were 100% and 93.1%, respectively.

Take `CCCCCCCCCCCCN=C=NC(C)(C)c1ccccc1` [Compound 12, N-n-dodecyl-N'-(2-phenyl-2-propyl)carbodiimide]: the figures for the mortality at 100 ppm in series [1] and in series [3] were 82.2% and 86.5%, respectively. Moreover, the pest or weed control at 110 µg/g in series [4] and in series [2] was 100% in each case. The same compound showed an LD50 at 168 h in series [5] of over 16000 mg/kg. For the same compound, the “Rate of Eggs Laid” value in series [6] (setting [8]) is on record as 94.8%; in series [6] (setting [9]), 85.5%; in series [6] (setting [10]), 62.6%; in series [6] (concentration of compound 0.1%), 0%; in series [6] (concentration of compound 0.3%), 0%; in series [6] (concentration of compound 1%), 0%. Besides, the “Effectiveness in Killing Adults” value in series [7] (setting [8]) is reported as “(-)”; in series [7] (setting [9]) it was “(-)”; in series [7] (setting [10]), “(-)”; in series [7] (concentration of compound 0.1%), “(+)”; in series [7] (concentration of compound 0.3%) it was “(+)”; in series [7] (concentration of compound 1%), “(+)”.

Turning to `CCCCCCCCCCCCCCN=C=NC(C)(C)c1ccccc1` [Compound 13, N-n-myristyl-N'-(2-phenyl-2-propyl)carbodiimide], the pest or weed control at 110 µg/g amounted to 100% in series [4] and 85% in series [2]. Further, in series [3], the mortality at 100 ppm came out at 92.8%.

Consider `CCCCCCCCCCCCCCCCN=C=NC(C)(C)c1ccccc1` [Compound 14, N-n-cetyl-N'-(2-phenyl-2-propyl)carbodiimide], for which, in series [1], the mortality at 100 ppm stood at 80.3%. The pest or weed control at 110 µg/g in series [4] is 96.6%.

`CCCCCCCCCCCCCCCCCCN=C=NC(C)(C)c1ccccc1` [Compound 15, N-n-stearyl-N'-(2-phenyl-2-propyl)carbodiimide]: the pest or weed control at 110 µg/g in series [4] was 98%.

As to `CC(C)(N=C=NC1CCCCC1)c1ccccc1` [Compound 16, N-cyclohexyl-N'-(2-phenyl-2-propyl)carbodiimide], the LD50 at 168 h in series [5] was 6000 mg/kg. The pest or weed control at 110 µg/g in series [2] was 100%. Also, the mortality at 100 ppm in series [3] turned out to be 100%.

For `CC1CC(N=C=NC(C)(C)c2ccccc2)CC(C)(C)C1` (stereo not drawn) [Compound 17, N-(3,3,5-trimethylcyclohexyl)-N'-(2-phenyl-2-propyl)carbodiimide], the mortality at 100 ppm in series [1] and in series [3] was 100% in each case. Moreover, the pest or weed control at 110 µg/g in series [4] and in series [2] was 100% each time. Further, in series [5], the LD50 at 168 h was 11000 mg/kg.

In the case of `CC(C)(N=C=Nc1ccccc1)c1ccccc1` [Compound 18, N-phenyl-N'-(2-phenyl-2-propyl)carbodiimide], the mortality at 100 ppm in series [1] and in series [3] was 100% in each case.

For `Cc1ccc(N=C=NC(C)(C)c2ccccc2)cc1` [Compound 19, N-p-tolyl-N'-(2-phenyl-2-propyl)carbodiimide], the mortality at 100 ppm in series [1] was 86.6%; in series [3], 81.8%.

As for `COc1ccc(N=C=NC(C)(C)c2ccccc2)cc1` [Compound 20, N-p-methoxyphenyl-N-'-(2-phenyl-2-propyl)carbodiimide], in series [1], the mortality at 100 ppm was found to be 96.4%.

Consider `COc1ccc(N=C=NC(C)(C)c2ccccc2)c(C)c1` [Compound 21, N-p-methoxy-o-tolyl-N'-(2-phenyl-2-propyl)carbodiimide], for which, in series [1], the mortality at 100 ppm came out at 100%.

Regarding `CC(C)(N=C=Nc1ccc(Cl)c(Cl)c1)c1ccccc1` [Compound 22, N-3,4-dichlorophenyl-N'-(2-phenyl-2-propyl)carbodiimide], in series [1], the mortality at 100 ppm amounted to 82.5%.

As for `CC(C)(N=C=NCc1ccccc1)c1ccccc1` [Compound 23, N-benzyl-N'-(2-phenyl-2-propyl)carbodiimide], the results for the mortality at 100 ppm in series [1] and in series [3] were 99.1% and 100%, respectively. Further, in series [2], the pest or weed control at 110 µg/g was 81.9%.

As to `CC(N=C=NC(C)(C)c1ccccc1)c1ccccc1` (stereo not drawn) [Compound 24, N-α-phenylethyl-N'-(2-phenyl-2-propyl)carbodiimide], the results for the mortality at 100 ppm in series [1] and in series [3] were 99.1% and 99.5%, respectively. Further, the pest or weed control at 110 µg/g in series [4] is 100%.

In the case of `CC(C)(N=C=NCCc1ccccc1)c1ccccc1` [Compound 25, N-β-phenylethyl-N'-(2-phenyl-2-propyl)carbodiimide], the mortality at 100 ppm in series [1] was 100%; in series [3], 91.2%. Further, the pest or weed control at 110 µg/g in series [4] and in series [2] was 100% each time.

Consider `CC(C)(N=C=NCc1ccc(Cl)cc1)c1ccccc1` [Compound 26, N-p-chlorobenzyl-N'-(2-phenyl-2-propyl)carbodiimide], for which the mortality at 100 ppm in series [1] amounted to 86.4%; in series [3], 81.9%.

On to `CC(C)(N=C=NCc1ccco1)c1ccccc1` [Compound 27, N-furfuryl-N'-(2-phenyl-2-propyl)carbodiimide], for which the values for the mortality at 100 ppm in series [1] and in series [3] were 91.1% and 77.8%, respectively.

In turn, `Cc1cc(Cl)ccc1N=CN(C)C` [Control Chemical I, reference compound] came in with a 50% lethal dose (LD50) at 168 h in series [5] of 160 mg/kg. The pest or weed control at 110 µg/g in series [2] was 78.2%.

For the compound `CNC(=O)Oc1cccc2ccccc12` [Control Chemical II, reference compound], the pest or weed control at 110 µg/g in series [2] is 27%.
